According to patent US10342823B2, “Topical and oral formulations comprising taurine and magnesium for the prevention and treatment of acne” (priority 2015, dated 2019):

Legend:
LXR-alpha = biological target: T1, LXR-alpha (Homo sapiens, UniProt Q13133); settings: liver cells in vitro; cited from earlier work
T1 construct: host or cells: liver cells in vitro
T1 sequence (Q13133 1-447): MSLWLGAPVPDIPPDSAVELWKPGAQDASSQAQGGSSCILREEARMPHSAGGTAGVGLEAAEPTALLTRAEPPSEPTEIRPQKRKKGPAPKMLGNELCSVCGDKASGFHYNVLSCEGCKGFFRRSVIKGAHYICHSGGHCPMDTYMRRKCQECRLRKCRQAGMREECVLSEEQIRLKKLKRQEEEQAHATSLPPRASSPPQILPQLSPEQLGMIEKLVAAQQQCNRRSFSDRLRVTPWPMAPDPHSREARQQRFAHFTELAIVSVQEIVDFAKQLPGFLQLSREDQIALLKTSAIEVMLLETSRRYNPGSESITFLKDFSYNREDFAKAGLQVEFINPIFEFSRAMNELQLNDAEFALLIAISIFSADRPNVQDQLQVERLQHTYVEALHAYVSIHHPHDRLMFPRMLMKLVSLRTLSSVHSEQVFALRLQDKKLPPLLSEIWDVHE

acne = assay: Study Volunteer experiences with oral taurine-magnesium treatment regimens; format: in vivo, human; settings: for Treatment Outcome: TAU 1500 mg/day, Mg 0
Text: The following non-limiting examples show Study Volunteer experiences with various taurine-magnesium treatment regimens. Volunteers were listed in the chronological order of the start of their taking full daily doses of taurine with magnesium.
Severity of acne was the following: Volunteers 1 and 2 had sporadic mild acne, Volunteers 3 and 4 had chronic cyclic mild acne, Volunteer 5 had chronic acne that appeared to be between mild and moderate, Volunteer 6 had chronic severe acne with scarring, Volunteer 7 had chronic moderate acne, Volunteer 8 had frequent mild acne, and Volunteer 9 had acne that appeared to be between mild and moderate.
The data provided in the Examples support the surprising conclusion that relatively high doses of taurine together with magnesium provide excellent treatment and in some cases prevention of mild to severe acne. […] As described in the Examples, some Volunteers, in addition to taking their recommended supplements of taurine and magnesium, for some weeks or months took other micronutrient supplements or even a multivitamin/mineral supplement containing an extra low dose of magnesium.

## NCCS(=O)(=O)O [taurine]
LXR-alpha
  Cellular lipid levels: dose-dependent marked reduction
  LXR-alpha ligand activity / lipogenesis: ligand of LXR-alpha that inhibits lipogenesis
acne; Volunteer 2, mild acne with noticeable lesions, 5 days
  Treatment Outcome: No improvement
acne; Volunteer 2, taurine alone 1.5 g daily, 5 days
  Improvement of acne lesions: no improvement
acne; Volunteer 4, mild acne, break-out lesions with menstrual period, 7 days
  Treatment Outcome: Slight
acne; Volunteer 4, taurine only, first week
  Improvement of acne: slight improvement
